In US12637471B2, “Heterocyclic compounds, compositions, methods of preparation and uses thereof” (Organon R&D Finland Ltd, priority 2021, dated 2026) one finds inhibition data, which are given here for 20 compounds.

What all share (format): biochemical
Experiment [1] deals with T1, Recombinant human AKR1C3 (17β-HSD5) protein (Homo sapiens, UniProt P42330).
T1 construct: made in house; host or cells: E. coli
T1 sequence (P42330 1-323): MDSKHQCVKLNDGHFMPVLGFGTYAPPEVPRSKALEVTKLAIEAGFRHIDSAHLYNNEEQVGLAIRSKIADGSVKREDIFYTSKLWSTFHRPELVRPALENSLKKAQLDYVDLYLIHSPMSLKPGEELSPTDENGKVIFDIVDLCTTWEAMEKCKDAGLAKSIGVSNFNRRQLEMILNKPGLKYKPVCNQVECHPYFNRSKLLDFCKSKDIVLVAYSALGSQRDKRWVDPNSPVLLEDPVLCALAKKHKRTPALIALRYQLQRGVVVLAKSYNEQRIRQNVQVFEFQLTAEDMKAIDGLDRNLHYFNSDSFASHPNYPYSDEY
Briefly: Inhibition of AKR1C3 (17β-hydroxysteroid dehydrogenase type 5) enzyme, fluorescence assay. The note with it: inhibitor at 500 nM. The essentials:
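E. coli-expressed human AKR1C3 (27 nM) in 20 mM KH2PO4, 1 mM EDTA, pH 7.4, with 1 μM pyranoquinolinone ketone substrate, 1 mM NADPH and inhibitor at 500 nM, 1% DMSO, 60–120 min at RT. Fluorescent alcohol product (ex 420/em 510 nm) quantified against standards; inhibition derived from conversion percentages.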

The target in experiment [2] is T2, 17β-Hydroxysteroid Dehydrogenase Type 2 Enzyme (17β-HSD2) (Homo sapiens, UniProt P37059).
T2 construct: made in house; host or cells: Sf-9 insect cells (baculovirus)
T2 sequence (P37059 1-387): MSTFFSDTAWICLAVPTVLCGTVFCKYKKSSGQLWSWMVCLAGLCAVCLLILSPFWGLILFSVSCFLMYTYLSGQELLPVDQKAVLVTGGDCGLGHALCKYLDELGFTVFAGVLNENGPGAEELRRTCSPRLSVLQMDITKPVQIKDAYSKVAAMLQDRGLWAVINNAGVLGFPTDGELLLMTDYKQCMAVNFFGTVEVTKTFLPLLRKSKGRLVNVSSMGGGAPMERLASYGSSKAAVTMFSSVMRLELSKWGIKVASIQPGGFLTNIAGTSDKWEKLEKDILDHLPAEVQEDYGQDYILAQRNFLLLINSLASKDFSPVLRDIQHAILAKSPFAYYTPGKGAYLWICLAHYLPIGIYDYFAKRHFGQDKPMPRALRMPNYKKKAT
Briefly: Inhibition of the 17β-hydroxysteroid dehydrogenase type 2 enzyme, 3H-testosterone conversion. Conditions: inhibitor at 10 μM. The method in brief:
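Recombinant human 17β-HSD2 (Sf-9/baculovirus; 105 nM) incubated with 56.25 nM ³H-testosterone and 1 mM NAD in 20 mM KH2PO4 pH 8.5, 1 mM EDTA, 1% DMSO, 30 min at RT, inhibitor 10 μM. Reaction stopped with TCA; conversion to ³H-androstenedione by radio-UPLC gives percent inhibition.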

Experiment [3] has as its target T3, Recombinant human aldo-keto reductase family 1 member C2 (AKR1C2) protein (Homo sapiens, UniProt P52895).
T3 construct: made in house; host or cells: Sf-9 insect cells (baculovirus)
T3 sequence (P52895 1-323): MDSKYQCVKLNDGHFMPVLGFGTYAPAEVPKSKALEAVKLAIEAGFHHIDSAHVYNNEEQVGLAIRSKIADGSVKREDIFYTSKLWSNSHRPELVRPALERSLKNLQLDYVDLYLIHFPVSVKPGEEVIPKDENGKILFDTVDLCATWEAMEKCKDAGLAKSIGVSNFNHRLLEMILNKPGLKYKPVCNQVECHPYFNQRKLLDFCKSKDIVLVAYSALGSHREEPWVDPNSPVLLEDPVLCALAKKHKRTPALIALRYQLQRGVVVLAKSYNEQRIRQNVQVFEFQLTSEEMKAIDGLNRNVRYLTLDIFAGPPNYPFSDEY
Briefly: Inhibition of the aldo-keto reductase family 1 member C2, 3H-dihydrotestosterone conversion. The note with it: inhibitor at 10 μM. The method in brief:
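Sf-9-expressed enzyme (13.6 nM) incubated 45 min at 37 °C in 20 mM KH2PO4 pH 7.4 with 1 mM NADPH, 6.25 nM [3H]dihydrotestosterone and 10 μM compound (1% DMSO). After TCA stop, substrate and 5α-androstane-3α,17β-diol resolved by UPLC with radio-detection; inhibition from percent conversion.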

SMILES strings stand for the structures.

As for `N#CC(=C1CCN(C(=O)N2CCC(CO)CC2)CC1)c1ccc(Cl)cn1` [Compound 65, 2-(5-chloropyridin-2-yl)-2-(1-(4-(hydroxymethyl)piperidine-1-carbonyl)piperidin-4-ylidene)acetonitrile], in experiment [1], the inhibition (as a rule, the change of the read-out against control, counted positive when it falls) at 0.5 µM came out at 97%. Besides, the inhibition at 10 µM in experiment [2] and in experiment [3] was 2% in each case.
As for `N#CC(=C1CCN(C(=O)N2CCc3sccc3C2)CC1)c1ccc(Cl)cn1` [Compound 66, 2-(5-chloropyridin-2-yl)-2-(1-(4,5,6,7-tetrahydrothieno[3,2-c]pyridine-5-carbonyl)piperidin-4-ylidene)acetonitrile], the inhibition at 0.5 µM in experiment [1] worked out at 96%. Moreover, the values for the inhibition at 10 µM in experiment [2] and in experiment [3] were 12% and 8%, respectively.
On the same counts, the results for `N#CC(=C1CCN(C(=O)N2CCc3[nH]ncc3C2)CC1)c1ccc(Cl)cn1` [Compound 67, 2-(5-chloropyridin-2-yl)-2-(1-(4,5,6,7-tetrahydro-1H-pyrazolo[4,3-c]pyridine-5-carbonyl)piperidin-4-ylidene)acetonitrile] are 98%, 9% and 6%.
For `N#CC(=C1CCN(C(=O)N2CCn3cncc3C2)CC1)c1ccc(Cl)cn1` [Compound 68, 2-(5-chloropyridin-2-yl)-2-(1-(5,6,7,8-tetrahydroimidazo[1,5-a]pyrazine-7-carbonyl)piperidin-4-ylidene)acetonitrile], in that order: 98%, 8% and 11%.
For the compound `CN(C(=O)N1CCC(=C(C#N)c2ccc(Cl)cc2)CC1)C1CCOCC1` [Compound 69, 4-((4-chlorophenyl)(cyano)methylene)-N-methyl-N-(tetrahydro-2H-pyran-4-yl)piperidine-1-carboxamide], the inhibition at 0.5 µM in experiment [1] was determined as 98%. For the same compound, the inhibition at 10 µM was 10% in experiment [2] and 16% in experiment [3].
For `N#CC(=C1CCN(C(=O)N2CCC(O)CC2)CC1)c1n[nH]c2ccccc12` [Compound 70, 2-(1-(4-hydroxypiperidine-1-carbonyl)piperidin-4-ylidene)-2-(1H-indazol-3-yl)acetonitrile], in that order: 97%, 11% and 5%.
For `N#CC(=C1CCN(C(=O)N2CCc3[nH]ncc3C2)CC1)c1cccc2cn[nH]c12` [Compound 71, 2-(1H-indazol-7-yl)-2-(1-(4,5,6,7-tetrahydro-1H-pyrazolo[4,3-c]pyridine-5-carbonyl)piperidin-4-ylidene)acetonitrile], in that order: 99%, 29% and 12%.
On the same counts, the results for `N#CC(=C1CCN(C(=O)N2CCn3cncc3C2)CC1)c1cccc2cn[nH]c12` [Compound 72, 2-(1H-indazol-7-yl)-2-(1-(5,6,7,8-tetrahydroimidazo[1,5-a]pyrazine-7-carbonyl)piperidin-4-ylidene)acetonitrile] are 98%, 26% and 9%.
With `COCC1CCN(C(=O)N2CCC(=C(C#N)c3ccc(F)cc3F)CC2)CC1` [Compound 73, 2-(2,4-difluorophenyl)-2-(1-(4-(methoxymethyl)piperidine-1-carbonyl)piperidin-4-ylidene)acetonitrile], in experiment [1], the inhibition at 0.5 µM came to 92%. The values for the inhibition at 10 µM in experiment [2] and in experiment [3] were 21% and 19%, respectively.
Take `N#CC(=C1CCN(C(=O)N2CCC(CO)CC2)CC1)c1ccc(Cl)cc1` [Compound 74, 2-(4-chlorophenyl)-2-(1-(4-(hydroxymethyl)piperidine-1-carbonyl)piperidin-4-ylidene)acetonitrile]: the inhibition at 0.5 µM in experiment [1] stood at 98%. Moreover, the inhibition at 10 µM worked out at 17% in experiment [2] and 9% in experiment [3].
On the same counts, the results for `COCC1CCN(C(=O)N2CCC(=C(C#N)c3ccc(Cl)s3)CC2)CC1` [Compound 75, 2-(5-chlorothiophen-2-yl)-2-(1-(4-(methoxymethyl)piperidine-1-carbonyl)piperidin-4-ylidene)acetonitrile] are 94%, 23% and 13%.
For `N#CC(=C1CCN(C(=O)N2CCC(CO)CC2)CC1)c1ccc(C(F)(F)F)cc1` [Compound 76, 2-(1-(4-(hydroxymethyl)piperidine-1-carbonyl)piperidin-4-ylidene)-2-(4-(trifluoromethyl)phenyl)acetonitrile], in that order: 99%, 20% and 6%.
For `N#CC(=C1CCN(C(=O)N2CCC(S(N)(=O)=O)CC2)CC1)c1ccc(Cl)s1` [Compound 77, 1-(4-((5-chlorothiophen-2-yl)(cyano)methylene)piperidine-1-carbonyl)piperidine-4-sulfonamide], in that order: 96%, 19% and 24%.
Turning to `COC1CCN(C(=O)N2CCC(=C(C#N)c3ccc(Cl)s3)CC2)CC1` [Compound 78, 2-(5-chlorothiophen-2-yl)-2-(1-(4-methoxypiperidine-1-carbonyl)piperidin-4-ylidene)acetonitrile], in experiment [1], the inhibition at 0.5 µM worked out at 99%. For the same compound, the figures for the inhibition at 10 µM in experiment [2] and in experiment [3] were 27% and 15%, respectively.
On the same counts, the results for `COC1CCN(C(=O)N2CCC(=C(C#N)c3ccc(Cl)cc3)CC2)CC1` [Compound 79, 2-(4-chlorophenyl)-2-(1-(4-methoxypiperidine-1-carbonyl)piperidin-4-ylidene)acetonitrile] are 99%, 10% and 6%.
For `N#CC(=C1CCN(C(=O)N2CCC(O)CC2)CC1)c1cccc(Cl)c1` [Compound 80, 2-(3-chlorophenyl)-2-(1-(4-hydroxypiperidine-1-carbonyl)piperidin-4-ylidene)acetonitrile], in that order: 99%, 12% and 7%.
For `COC1CCN(C(=O)N2CCC(=C(C#N)c3ccc(Cl)cn3)CC2)CC1` [Compound 81, 2-(5-chloropyridin-2-yl)-2-(1-(4-methoxypiperidine-1-carbonyl)piperidin-4-ylidene)acetonitrile], in that order: 95%, 10% and -7%.
In the case of `COC[C@@H]1CCCN1C(=O)N1CCC(=C(C#N)c2ccc(Cl)cc2)CC1` [Compound 82, (S)-2-(4-chlorophenyl)-2-(1-(2-(methoxymethyl)pyrrolidine-1-carbonyl)piperidin-4-ylidene)acetonitrile], the inhibition at 0.5 µM in experiment [1] is 100%. Moreover, the inhibition at 10 µM in experiment [2] came out at 28%; in experiment [3], 3%.
For `N#CC(=C1CCN(C(=O)N2CCc3nocc3C2)CC1)c1ccc(F)cn1` [Compound 84, 2-(5-fluoropyridin-2-yl)-2-(1-(4,5,6,7-tetrahydroisoxazolo[4,3-c]pyridine-5-carbonyl)piperidin-4-ylidene)acetonitrile], in that order: 98%, 23% and 6%.
For `N#CC(=C1CCN(C(=O)N2CC(CO)C2)CC1)c1ccc(F)cc1` [Compound 85, 2-(4-fluorophenyl)-2-(1-(3-(hydroxymethyl)azetidine-1-carbonyl)piperidin-4-ylidene)acetonitrile], in that order: 72%, 27% and 9%.
